Data as given in patent US20220388953A1, “COMPOUNDS WITH ANTIMICROBIAL ACTIVITY” (The Hong Kong Polytechnic University, priority 2018, published 2022).
Converted amounts (≈) assume the structure as drawn. Read-outs that look alike come from different tables or passages of the source.

Legend:
[1] = test system: Streptococcus pneumoniae (Klein) Chester (ATCC 49619); assay: Antimicrobial assay, broth microdilution (CLSI), MIC; type: cell-based
Description: C3 derivatives were synthesized and antimicrobial activity measured against Streptococcus pneumoniae (MIC, minimum inhibitory concentration).
Bacterial Strains was used in this study is Streptococcus pneumoniae (Klein) Chester (ATCC® 49619™)
The antimicrobial activity of the compounds was determined by broth microdilution according to the Clinical & Laboratory Standards Institute (CLSI) guidelines. The test medium was cation-adjusted Mueller-Hinton broth (MH). Serial two-fold dilutions were performed for the tested chemicals starting from 256 μg/mL to 0.5 μg/mL, and the bacterial cell inoculum was adjusted to approximately 5×10^5 CFU/mL. Results were taken after 20 h of incubation at 37° C. The MIC was defined as the lowest concentration of antibiotic with no visible growth. Experiments were performed in duplicates.

[2] = Streptococcus pneumoniae, ATCC49619, 20 h
[3] = ATCC49619, Table 3, Streptococcus pneumoniae ATCC 49619, 20 h at 37° C., read-out: MIC

## NS(=O)(=O)c1cccc(NCc2ccc(Sc3ccc(Cl)c(Cl)c3)c([N+](=O)[O-])c2)c1 [C3-074, 3-((4-((3,4-Dichlorophenyl)thio)-3-nitrobenzyl)amino)benzenesulfonamide]
other
  melting point: 191 to 193 °C

## Nc1ccccc1Sc1ccc(C(=O)Nc2ccccc2C(=O)O)cc1[N+](=O)[O-] [C3-057, 2-(4-((2-Aminophenyl)thio)-3-nitrobenzamido)benzoic Acid]
other
  melting point: 259 to 261 °C

## Nc1ccccc1Sc1ccc(C2(O)c3ccccc3C(=O)N2c2cccc(C(=O)O)c2)cc1[N+](=O)[O-] (stereo not drawn) [C3-43]
[1]; [2]
  MIC: 64 µg/mL (≈ 125 µM)

## CC(C)(C)c1cccc(N2C(=O)c3ccccc3C2(O)c2ccc(Sc3ccccc3N)c([N+](=O)[O-])c2)c1 (stereo not drawn) [C3-44]
[1]; [3]
  MIC: > 256 µg/mL

## N#Cc1ccccc1NCc1ccc(Sc2ccc(Cl)c(Cl)c2)c([N+](=O)[O-])c1 [C3-091, 2-((4-((3,4-Dichlorophenyl)thio)-3-nitrobenzyl)amino)benzonitrile]
other
  melting point: 173 to 175 °C

## Cc1cccc(N2C(=O)c3ccccc3C2(O)c2ccc(Sc3ccccc3N)c([N+](=O)[O-])c2)c1 (stereo not drawn) [C3-45]
[1]; [3]
  MIC: > 256 µg/mL

## O=C(O)c1cccc(NCc2ccc(Sc3ccc(Cl)c(Cl)c3)c([N+](=O)[O-])c2)c1 [C3-047, 3-((4-((3,4-Dichlorophenyl)thio)-3-nitrobenzyl)amino)benzoic Acid]
other
  melting point: 224 to 226 °C

## Nc1ccccc1Sc1ccc(CNc2cccc(C(=O)O)c2)cc1[N+](=O)[O-] [C3-027, 3-((4-((2-Aminophenyl)thio)-3-nitrobenzyl)amino)benzoic Acid]
other
  melting point: 105 to 107 °C

## O=C(O)c1ccc(Br)c(NCc2ccc(Sc3ccc(Cl)c(Cl)c3)c([N+](=O)[O-])c2)c1 [C3-078, 4-Bromo-3-((4-((3,4-dichlorophenyl)thio)-3-nitrobenzyl)amino)benzoic Acid]
other
  melting point: 231 to 233 °C

## O=C(O)c1ccc(Cl)cc1NCc1ccc(Sc2ccc(Cl)c(Cl)c2)c([N+](=O)[O-])c1 [C3-087, 4-Chloro-2-((4-((3,4-dichlorophenyl)thio)-3-nitrobenzyl)amino)benzoic Acid]
other
  melting point: 220 to 222 °C

## NC(=O)c1cccc(N2C(=O)c3ccccc3C2(O)c2ccc(Sc3ccccc3N)c([N+](=O)[O-])c2)c1 (stereo not drawn) [C3-42]
[1]; [3]
  MIC: 32 µg/mL (≈ 62.4 µM)

## Nc1ccc(Sc2ccc(C(=O)c3ccccc3C(=O)O)cc2[N+](=O)[O-])cc1 [C3-6, 2-(4-((4-Aminophenyl)thio)-3-nitrobenzoyl)benzoic Acid]
[1]; [2]
  MIC: 128 µg/mL (≈ 325 µM)

## Nc1cc(Cl)ccc1Sc1ccc(C(=O)c2ccccc2C(=O)O)cc1[N+](=O)[O-] [C3-10, 2-(4-((2-Amino-4-chlorophenyl)thio)-3-nitrobenzoyl)benzoic Acid]
[1]; [2]
  MIC: 64 µg/mL (≈ 149 µM)

## O=C(O)c1ccc(F)c(NCc2ccc(Sc3ccc(Cl)c(Cl)c3)c([N+](=O)[O-])c2)c1 [C3-082, 3-((4-((3,4-Dichlorophenyl)thio)-3-nitrobenzyl)amino)-4-fluorobenzoic Acid]
other
  melting point: 237 to 239 °C

## O=C(O)c1cccc(NC(=O)c2ccc(Sc3ccc(Cl)c(Cl)c3)c([N+](=O)[O-])c2)c1 [C3-048, 3-(4-((3,4-Dichlorophenyl)thio)-3-nitrobenzamido)benzoic Acid]
other
  melting point: 280 to 282 °C

## Nc1ccccc1Sc1ccc(C2(O)c3ccccc3C(=O)N2c2cccc(Cl)c2)cc1[N+](=O)[O-] (stereo not drawn) [C3-46]
[1]; [2]
  MIC: > 256 µg/mL

## O=C(O)c1ccc(Cl)c(NCc2ccc(Sc3ccc(Cl)c(Cl)c3)c([N+](=O)[O-])c2)c1 [C3-071, 4-Chloro-3-((4-((3,4-dichlorophenyl)thio)-3-nitrobenzyl)amino)benzoic Acid]
other
  melting point: 196 to 198 °C

## O=C(O)c1c(Cl)cccc1NCc1ccc(Sc2ccc(Cl)c(Cl)c2)c([N+](=O)[O-])c1 [C3-088, 2-Chloro-6-((4-((3,4-Dichlorophenyl)thio)-3-nitrobenzyl)amino)benzoic Acid]
other
  melting point: 204 to 206 °C

## NC(=O)c1cccc(NCc2ccc(Sc3ccc(Cl)c(Cl)c3)c([N+](=O)[O-])c2)c1 [C3-066, 3-((4-((3,4-Dichlorophenyl)thio)-3-nitrobenzyl)amino)benzamide]
other
  melting point: 158 to 160 °C

## O=C(Nc1ccccc1C(=O)O)c1ccc(Sc2ccc(Cl)c(Cl)c2)c([N+](=O)[O-])c1 [C3-077, 2-(4-((3,4-Dichlorophenyl)thio)-3-nitrobenzamido)benzoic Acid]
other
  melting point: 279 to 281 °C

## O=C(O)c1cc(NCc2ccc(Sc3ccc(Cl)c(Cl)c3)c([N+](=O)[O-])c2)ccc1Cl [C3-079, 2-Chloro-5-((4-((3,4-dichlorophenyl)thio)-3-nitrobenzyl)amino)benzoic Acid]
other
  melting point: 148 to 150 °C

## O=[N+]([O-])c1cc(CNc2cccc(CO)c2)ccc1Sc1ccc(Cl)c(Cl)c1 [C3-080, (3-((4-((3,4-Dichlorophenyl)thio)-3-nitrobenzyl)amino)phenyl)methanol]
other
  melting point: 118 to 120 °C

## Cc1ccc(C(=O)O)cc1NCc1ccc(Sc2ccc(Cl)c(Cl)c2)c([N+](=O)[O-])c1 [C3-075, 3-((4-((3,4-Dichlorophenyl)thio)-3-nitrobenzyl)amino)-4-methylbenzoic Acid]
other
  melting point: 222 to 224 °C

## Nc1cc(C(=O)c2ccccc2C(=O)O)ccc1Sc1ccc(Cl)c(Cl)c1 [C3-094, 2-(3-Amino-4-((3,4-dichlorophenyl)thio)benzoyl)benzoic Acid]
other
  melting point: 188 to 190 °C

## NC(=O)c1ccccc1NCc1ccc(Sc2ccc(Cl)c(Cl)c2)c([N+](=O)[O-])c1 [C3-090, 2-((4-((3,4-Dichlorophenyl)thio)-3-nitrobenzyl)amino)benzamide]
other
  melting point: 184 to 186 °C

## CN(C)c1cc(C(=O)c2ccccc2C(=O)O)ccc1Sc1ccc(Cl)c(Cl)c1 [C3-095, 2-(4-((3,4-Dichlorophenyl)thio)-3-(dimethylamino)benzoyl)benzoic Acid]
other
  melting point: 144 to 146 °C

## O=C(O)c1ccccc1C(=O)c1ccc(Nc2cccc(Cl)c2)c([N+](=O)[O-])c1
other
  melting point: 159 to 161 °C

## O=C(O)c1ccc(N2CCOCC2)c(NCc2ccc(Sc3ccc(Cl)c(Cl)c3)c([N+](=O)[O-])c2)c1 [C3-073, 3-((4-((3,4-Dichlorophenyl)thio)-3-nitrobenzyl)amino)-4-morpholinobenzoic Acid]
other
  melting point: 147 to 149 °C

## Nc1ccccc1Sc1ccc(CNc2ccccc2C(=O)O)cc1[N+](=O)[O-] [C3-065, 2-((4-((2-Aminophenyl)thio)-3-nitrobenzyl)amino)benzoic Acid]
other
  melting point: 201 to 203 °C

## O=C(O)c1ccccc1C(=O)c1ccc(Sc2ccc(Cl)c(Cl)c2)cc1 [C3-083, 2-(4-((3,4-Dichlorophenyl)thio)benzoyl)benzoic Acid]
other
  melting point: 164 to 166 °C

## Nc1ccccc1Sc1ccc(C(=O)Nc2ccc(C(=O)O)cc2)cc1[N+](=O)[O-] [C3-056, 4-(4-((2-Aminophenyl)thio)-3-nitrobenzamido)benzoic Acid]
other
  melting point: 247 to 249 °C

## Nc1ccccc1Sc1ccc(C(=O)Nc2cccc(C(=O)O)c2)cc1[N+](=O)[O-] [C3-026, 3-(4-((2-Aminophenyl)thio)-3-nitrobenzamido)benzoic Acid]
other
  melting point: 251 to 252 °C

## O=C(O)c1ccccc1NCc1ccc(Sc2ccc(Cl)c(Cl)c2)c([N+](=O)[O-])c1 [C3-081, 2-((4-((3,4-Dichlorophenyl)thio)-3-nitrobenzyl)amino)benzoic Acid]
other
  melting point: 171 to 173 °C
